Experimental data from patent US20080032340A1, “Peptide motifs for binding avidin or neutravidin” (University of Arizona, priority 2006, published 2008).
Read-outs that look alike come from different tables or passages of the source. Where a SMILES comes first, the peptide text is derived from it. Bridges are numbered along the chain shown (N, C = ends).

What was measured:
streptavidin = biological target: T1, streptavidin (Streptomyces avidinii, UniProt P22629); test: HABA-competitive binding determination, streptavidin-HABA complex
T1 construct: purchased Pierce
T1 sequence (P22629 25-183): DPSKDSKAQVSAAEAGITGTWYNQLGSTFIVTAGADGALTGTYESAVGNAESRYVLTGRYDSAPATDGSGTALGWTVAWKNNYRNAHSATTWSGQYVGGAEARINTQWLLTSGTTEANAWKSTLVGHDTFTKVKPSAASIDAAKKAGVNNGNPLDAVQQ
Procedure: (§1) After 60 minutes, the absorbance of the complex was monitored at 500 nm. To calculate the IC50s of the selected peptides, the average of three separate trials were fitted to the Hill equation, [formula] where [L] is the total ligand concentration, [L]F is free ligand concentration, [L]B is bound ligand concentration and nH is the Hill coefficient (Hill, The possible effects of the aggregation of the molecules of haemoglobin on its dissociation curves. J Physiol 1910; 40:4-8). […] Best fit equations were calculated using KaleidaGraph (Synergy Software).

NeutrAvidin [1] = biological target: T2, NeutrAvidin (Gallus gallus, UniProt P02701); test: HABA-competitive binding determination, HABA-NeutrAvidin complex; settings: linear (uncyclized) peptides; read-out: dissociation constant, Neutravidin, linear peptides
T2 construct: purchased Pierce
T2 sequence (P02701 25-152): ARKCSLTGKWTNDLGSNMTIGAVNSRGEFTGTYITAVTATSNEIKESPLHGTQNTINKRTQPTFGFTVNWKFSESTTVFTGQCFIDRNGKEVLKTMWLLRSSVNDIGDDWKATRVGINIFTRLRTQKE
Procedure: as §1

avidin [2] = biological target: T3, avidin (Gallus gallus, UniProt P02701); test: HABA-competitive binding determination, avidin-HABA complex; design: purchased Pierce; species or system chicken; settings: linear (uncyclized) peptides; read-out: dissociation constant, avidin, linear peptides
T3 sequence (P02701 25-152): as above
Procedure: as §1

NeutrAvidin [3] = biological target: T2, NeutrAvidin; test: HABA saturation of NeutrAvidin; format: binding; settings: calculated value, supplementary material; read-out: dissociation constant of the HABA-NeutrAvidin complex
Procedure: as §1

avidin [4] = biological target: T3, avidin; settings: pH of 7, literature value; read-out: Kd HABA-avidin; cited from earlier work
NeutrAvidin [5] = biological target: T2, NeutrAvidin; test: Phage-displayed cyclic peptide selection against NeutrAvidin (clone sequencing); format: binding
Procedure: XL1-Blue E. coli containing the phagemid library vector were grown from glycerol stocks in 5 mL of 2×YT media with glucose and ampicillin selection at 37° C. Titered M13KO7 helper phage (5×10^9 pfu) was added when the culture reached an OD600 of 0.8 and was incubated for 1 hour. The culture was then pelleted via centrifugation, the cells were resuspended in 2×YT with ampicillin and kanamycin, and allowed to grow overnight. After 10 hours of incubation, the culture was again pelleted by centrifugation and the supernatant was filtered through a 0.45 μm sterile filter to remove trace E. coli. The phage was isolated from the supernatant by PEG (polyethylene glycol) precipitation. 1 mL of 20% PEG in 2.5 M NaCl was added to the 5 mL of filtered media. The resulting precipitate was isolated by centrifugation at 18,000 rcf. The phage pellet was resuspended in 5 mL of Tris Buffer A (20 mM Tris-HCl, 150 mM NaCl, and 0.05% Tween 20 at pH=7.4). The phage was then re-precipitated with 1 mL PEG/NaCl, isolated via centrifugation, and resuspended in 1 mL of Tris Buffer A.
100 μL of the phage solution was then exposed to a well of a NeutrAvidin coated polystyrene plate (Pierce) that had been previously rinsed with Tris Buffer A. After 1 hour of incubation, the phage solution was discarded and the well was washed six times for 10 minutes each with 200 μL of Tris Buffer A. Bound phage was eluted with 200 μL of 0.2 M glycine (pH=2.0) by incubation for 10 minutes, followed by neutralization with 40 μL of 2 M Tris base. The input phage and eluted phage were then used to infect two 5 mL tetracycline-selected cultures of XL1 Blue E. coli (OD600=0.8). After 1 hour, the cells were pelleted and resuspended in 5 mL of 2×YT with ampicillin and glucose. […]
Phage display selection and synthesis of NeutrAvidin binding peptides. […] The library was expressed as a fusion to the gene III protein of M13 filamentous bacteriophage, C-terminal to the periplasmic signaling sequence and N-terminal to a peptide linker and the rest of the gene III protein (see supplementary material). […]

Compound | Kd (streptavidin) [µM] | Kd (NeutrAvidin [1]) [µM] | Kd (avidin [2]) [µM] | further results
CC(C)C[C@@H]1NC(=O)[C@H](CC(=O)O)NC(=O)[C@@H](N)CSSC[C@@H](C(=O)NCC(N)=O)NC(=O)[C@H](Cc2c[nH]c3ccccc23)NC(=O)[C@@H]2CCCN2C(=O)[C@H](CO)NC(=O)[C@H](C)NC1=O [DLASPW] (H-CDLASPWCG-NH2; disulfide 1-8; N-terminus assumed) | > 5000 | – | – | –
C[C@@H]1NC(=O)[C@H](CCCNC(=N)N)NC(=O)[C@H](CC(=O)O)NC(=O)[C@@H](N)CSSC[C@@H](C(=O)NCC(N)=O)NC(=O)[C@H](Cc2ccc(O)cc2)NC(=O)[C@@H]2CCCN2C(=O)[C@H](CO)NC1=O [DRASPY] (H-CDRASPYCG-NH2; disulfide 1-8) | > 5000 | < 500 | < 500 | –
C[C@@H]1NC(=O)[C@H](CCCNC(=N)N)NC(=O)[C@H](CC(=O)O)NC(=O)[C@@H](N)CSSC[C@@H](C(=O)NCC(N)=O)NC(=O)[C@H](Cc2ccc(O)cc2)NC(=O)[C@@H]2CCCN2C(=O)[C@H]([C@@H](C)O)NC1=O [DRATPY] (H-CDRATPYCG-NH2; disulfide 1-8) | > 5000 | < 500 | < 500 | –
O=C(O)c1ccccc1N=Nc1ccc(O)cc1 [HABA, 4′-hydroxyazobenzene-2-carboxylic acid] | – | – | – | Kd (NeutrAvidin [3]): 15 µM; Kd (avidin [4]): 7 µM
CDRASPWC [not synthesized] | – | – | – | % of clones, Round 3 (NeutrAvidin [5]; round 3, 15 clones sequenced): 20%; % of clones, Round 4 (NeutrAvidin [5]; round 4, 26 clones sequenced): 8%; % of clones, Round 5 (NeutrAvidin [5]; round 5, 40 clones sequenced): 5%
